Laboratory results from patent US11414425B2 (priority 2018, dated 2022).
Like-named read-outs stand apart in the source and are kept apart here.

What was measured:
[1] = test system: aged-impaired (AI) rats; experiment: Morris water maze behavioral task; assay type: in vivo, rat; conditions: 100 μg ICV
From the text: Another cognitive test that may be used to assess the effects of a test compound on the cognitive impairment of a CNS disorder model animal is the Morris water maze. A water maze is a pool surrounded with a novel set of patterns relative to the maze. […] The subject is trained to locate a submerged escape platform hidden underneath the surface of the pool. During the training trial, a subject is released in the maze (pool) from random starting positions around the perimeter of the pool. The starting position varies from trial to trial. […] After a delay period following the last training trial, a retention test in the absence of the escape platform is given to assess spatial memory. The subject's level of preference for the location of the (now absent) escape platform, as measured by, e.g., the time spent in that location or the number of crossings of that location made by the mouse, indicates better spatial memory, i.e., treatment of cognitive impairment. The preference for the location of the escape platform under different treatment conditions, can then be compared for efficacy of the test compound in treating cognitive impairment associated with CNS disorders.
The effects of 6,6 dimethyl-3-(3-hydroxypropyl)thio-1-(thiazol-2-yl)-6,7-dihydro-2-benzothiophen-4(5H)-one on the in vivo spatial memory retention of aged-impaired (AI) rats were assessed in a Morris water maze behavioral task. A water maze is a pool surrounded with a novel set of patterns relative to the maze.
Cognitively impaired aged rats were implanted unilaterally with a cannula into the lateral ventricle. Stereotaxic coordinates were 1.0 mm posterior to bregma, 1.5 mm lateral to midline, and 3.5 mm ventral to the skull surface. After about a week of recovery, the rats were pre-trained in a water maze for 2 days (6 trials per day) to locate a submerged escape platform hidden underneath the surface of the pool, in which the escape platform location varied from day to day. No intracerebroventricular (ICV) infusion was given during pre-training.
After pre-training, rats received ICV infusion of either 100 μg 6,6 dimethyl-3-(3-hydroxypropyl)thio-1-(thiazol-2-yl)-6,7-dihydro-2-benzothiophen-4(5H)-one (n=6) in 5 μl DMSO or vehicle DMSO (n=5) 40 min prior to water maze training and testing. Training consisted of 8 trials per day for 2 days where the hidden escape platform remained in the same location. Rats were given 60 seconds to locate the platform with a 60 seconds inter-trial interval. The rats were given a probe test (120 seconds) 24 hr. after the end of training where the escape platform was removed. During the training, there were 4 blocks, where each block had 4 training trials.
During a test trial 24 hr. after training, the escape platform was removed. […]

[2] = target: α5-containing GABAAR (Homo sapiens, UniProt P18507+P31644); conditions: (EC20); cited from earlier work
α5-containing GABAAR, sequence (P31644 32-462): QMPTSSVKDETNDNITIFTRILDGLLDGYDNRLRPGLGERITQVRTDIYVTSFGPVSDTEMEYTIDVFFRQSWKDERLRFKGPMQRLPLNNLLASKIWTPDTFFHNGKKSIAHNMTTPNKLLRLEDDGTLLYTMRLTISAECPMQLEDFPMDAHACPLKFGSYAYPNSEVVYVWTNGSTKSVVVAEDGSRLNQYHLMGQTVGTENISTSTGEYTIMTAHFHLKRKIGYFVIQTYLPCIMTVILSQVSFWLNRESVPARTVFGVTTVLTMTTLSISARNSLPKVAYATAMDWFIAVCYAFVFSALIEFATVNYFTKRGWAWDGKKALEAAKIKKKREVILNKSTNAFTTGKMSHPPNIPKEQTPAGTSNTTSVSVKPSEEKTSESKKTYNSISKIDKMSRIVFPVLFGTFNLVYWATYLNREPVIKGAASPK
α5-containing GABAAR, sequence (P18507 40-475): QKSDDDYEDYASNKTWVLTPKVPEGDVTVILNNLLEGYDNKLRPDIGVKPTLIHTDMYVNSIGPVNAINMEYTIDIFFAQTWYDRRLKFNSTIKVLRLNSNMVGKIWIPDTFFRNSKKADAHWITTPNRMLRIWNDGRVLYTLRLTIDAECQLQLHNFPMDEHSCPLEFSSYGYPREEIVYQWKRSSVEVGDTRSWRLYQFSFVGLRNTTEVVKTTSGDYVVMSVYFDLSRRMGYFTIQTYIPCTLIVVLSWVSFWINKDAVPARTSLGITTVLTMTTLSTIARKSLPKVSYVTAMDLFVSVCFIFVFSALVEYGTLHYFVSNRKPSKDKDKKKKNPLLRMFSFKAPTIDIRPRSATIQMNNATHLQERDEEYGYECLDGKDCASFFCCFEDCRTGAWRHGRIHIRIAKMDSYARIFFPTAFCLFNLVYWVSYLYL
α5-containing GABAAR, sequence (P28472 26-473, further chain): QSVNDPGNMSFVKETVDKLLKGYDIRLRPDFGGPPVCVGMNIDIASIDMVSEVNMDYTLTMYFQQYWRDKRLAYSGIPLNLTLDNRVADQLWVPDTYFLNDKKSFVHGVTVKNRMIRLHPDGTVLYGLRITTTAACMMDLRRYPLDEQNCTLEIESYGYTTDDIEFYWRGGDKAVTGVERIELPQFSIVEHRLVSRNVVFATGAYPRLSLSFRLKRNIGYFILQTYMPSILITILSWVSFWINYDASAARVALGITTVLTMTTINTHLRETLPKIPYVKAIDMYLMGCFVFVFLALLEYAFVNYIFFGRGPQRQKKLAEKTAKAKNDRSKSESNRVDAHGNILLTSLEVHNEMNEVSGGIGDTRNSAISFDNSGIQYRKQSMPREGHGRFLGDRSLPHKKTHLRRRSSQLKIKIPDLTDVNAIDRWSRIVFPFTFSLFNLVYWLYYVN

[3] = assay type: in vivo, Long Evans rats; conditions: i.v.
Experimental: (§1) Food and water were available ad libitum.
For plasma exposures, blood samples were centrifuged at 14000 rpm for 16 minutes. After centrifuging, 50 ul of supernatant (plasma) from each sample was added to 200 μl of acetonitrile plus 0.1% formic acid. […] Samples were sonicated for 5 minutes in an ultrasonic water bath, followed by centrifugation for 30 minutes, at 16000 RPM. 100 ul of supernatant was removed from each sample vial and placed in a new glass auto sample vial, followed by the addition of 300 μl of sterile water (pH 6.5).
Additional studies were conducted in aged Long-Evans rats in order to determine the exposures at the behaviorally relevant doses in the cognition studies. Exposure in young Long-Evans rats was also determined to bridge with the receptor occupancy studies that were conducted in young Long-Evans rats. Exposures in young and aged Long-Evans rats were relatively similar (Table 4, FIG. 4).

[4] = target: T1, GABAAα5 receptor (Rattus norvegicus, UniProt P18508+P19969); experiment: in vivo; assay type: in vivo, Long Evans rats
T1 construct: occupancy in the hippocampus (a region of high GABAAα5 receptor density); from tissue; host or cells: rat brain in vivo: hippocampus versus cerebellum
T1 sequence (P19969 32-464): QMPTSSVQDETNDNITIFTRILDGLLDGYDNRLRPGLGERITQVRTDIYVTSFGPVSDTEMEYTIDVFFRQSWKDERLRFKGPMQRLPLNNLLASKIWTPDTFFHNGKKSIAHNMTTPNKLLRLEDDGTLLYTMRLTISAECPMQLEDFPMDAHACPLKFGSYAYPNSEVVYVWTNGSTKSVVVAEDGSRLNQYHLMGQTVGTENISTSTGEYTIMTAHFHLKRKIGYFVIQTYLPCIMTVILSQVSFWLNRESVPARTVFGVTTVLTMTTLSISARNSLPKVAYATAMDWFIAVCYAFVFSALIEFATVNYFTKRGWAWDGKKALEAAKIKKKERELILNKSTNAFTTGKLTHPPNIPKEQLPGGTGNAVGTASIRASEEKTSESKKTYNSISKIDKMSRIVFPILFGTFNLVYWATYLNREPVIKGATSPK
T1 sequence (P18508 39-466): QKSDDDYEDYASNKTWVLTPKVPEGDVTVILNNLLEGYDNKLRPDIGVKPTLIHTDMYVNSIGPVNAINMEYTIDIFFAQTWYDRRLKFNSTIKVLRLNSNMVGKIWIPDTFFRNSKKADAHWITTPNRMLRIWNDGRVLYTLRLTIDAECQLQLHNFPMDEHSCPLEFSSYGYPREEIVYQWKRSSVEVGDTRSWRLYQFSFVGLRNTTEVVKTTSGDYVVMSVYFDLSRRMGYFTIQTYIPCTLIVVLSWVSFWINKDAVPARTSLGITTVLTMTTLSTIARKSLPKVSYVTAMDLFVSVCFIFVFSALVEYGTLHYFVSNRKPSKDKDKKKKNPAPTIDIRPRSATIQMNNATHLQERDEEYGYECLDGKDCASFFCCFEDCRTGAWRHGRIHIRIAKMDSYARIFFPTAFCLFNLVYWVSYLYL
From the text: as §1

[5] = test system: aged-impaired (AI) rats; experiment: Radial Arm Maze (RAM) behavioral task, spatial memory retention; assay type: in vivo, rat
From the text: A Radial Arm Maze (RAM) behavioral task is one example of a cognitive test, specifically testing spacial memory (Chappell et al. Neuropharmacology 37: 481-487, 1998). The RAM apparatus consists of, e.g., eight equidistantly spaced arms. A maze arm projects from each facet of a center platform. A food well is located at the distal end of each arm. Food is used as a reward. Blocks can be positioned to prevent entry to any arm. Numerous extra maze cues surrounding the apparatus may also be provided. After habituation and training phases, spatial memory of the subjects may be tested in the RAM under control or test compound-treated conditions. As a part of the test, subjects are pretreated before trials with a vehicle control or one of a range of dosages of the test compound. At the beginning of each trial, a subset of the arms of the eight-arm maze is blocked. Subjects are allowed to obtain food on the unblocked arms to which access is permitted during this initial “information phase” of the trial. Subjects are then removed from the maze for a delay period, e.g., a 60 second delay, a 15 minute delay, a one-hour delay, a two-hour delay, a six hour delay, a 24 hour delay, or longer) between the information phase and the subsequent “retention test,” during which the barriers on the maze are removed, thus allowing access to all eight arms. […] The identity and configuration of the blocked arms vary across trials. The number of “errors” the subjects make during the retention test phase is tracked. An error occurs in the trial if the subjects entered an arm from which food had already been retrieved in the pre-delay component of the trial, or if it re-visits an arm in the post-delay session that had already been visited. A fewer number of errors would indicate better spatial memory. The number of errors made by the test subject, under various test compound treatment regimes, can then be compared for efficacy of the test compound in treating cognitive impairment associated with CNS disorders.
The effects of methyl 3,5-diphenylpyridazine-4-carboxylate on the in vivo spatial memory retention of aged-impaired (AI) rats were assessed in a Radial Arm Maze (RAM) behavioral task using vehicle control and four different dosage levels of methyl 3,5-diphenylpyridazine-4-carboxylate (0.1 mg/kg, 0.3 mg/kg, 1 mg/kg and 3 mg/kg, ip). RAM behavioral tasks were performed on eight AI rats. All five treatment conditions (vehicle and four dosage levels) were tested on all eight rats.
The RAM apparatus used consisted of eight equidistantly-spaced arms. An elevated maze arm (7 cm width×75 cm length) projected from each facet of an octagonal center platform (30 cm diameter, 51.5 cm height). Clear side walls on the arms were 10 cm high and were angled at 65° to form a trough. […]

[6] = test system: MAM-treated rats; conditions: cited from earlier work
[7] = probe test 24 hr. after training

CC1(C)CC(=O)c2c(SCCCO)sc(-c3nccs3)c2C1 [6,6 dimethyl-3-(3-hydroxypropyl)thio-1-(thiazol-2-yl)-6,7-dihydro-2-benzothiophen-4(5H)-one]
time to find the escape platform ([1]; block 1 of training): about 24 seconds
time to find the escape platform ([1]; block 4 of training): about 9.6 seconds
number of crossings of target annulus vs opposite annulus [1, 7]: crossed the “target annulus” more often
time in target annulus vs opposite annulus [1, 7]: spent significantly more time in the target annulus

COC(=O)c1c(-c2ccccc2)cnnc1-c1ccccc1 [Methyl 3,5-diphenylpyridazine-4-carboxylate, reference compound]
α5 in vitro efficacy [2]: +27
increase in hippocampal exposure ([3]; dose from 0.1 to 1 mg/kg): 12 fold
increase in hippocampal exposure ([3]; dose from 1 to 10 mg/kg): ~5 fold
increase in plasma exposure ([3]; dose from 1 to 10 mg/kg): 12 fold
GABAA α5 receptors occupied ([4]; at exposures behaviorally active in aged-impaired rats, hippocampus): about 32%
receptor occupancy ED50, ratio method ([4]; i.v., hippocampus/cerebellum ratio): 1.8 mg/kg
receptor occupancy at 10 mg/kg ([4]; rat, iv, 10 mg/kg, i.v., read-out: GABAA α5 receptor occupancy): > 90%
memory performance relative to vehicle control treatment ([5]; 3 mg/kg ip, two-hour delay RAM, t(7)=4.233, p=0.004): significantly improved memory performance
average no. of errors ± standard error of the mean (SEM), retention test ([5]; 3 mg/kg ip, two-hour delay, AI rats): 1.31±0.40

C#Cc1ccc2c(c1)C(c1ccccc1F)=N[C@H](C)c1c(C(=O)OCC)ncn1-2 [SH-053-2′F—R—CH3]
number of spontaneously active DA neurons in the ventral tegmental area (VTA) ([6]; MAM rats, systemic and infused into ventral HPC): reduces the number of spontaneously active DA neurons in the ventral tegmental area (VTA) of MAM rats to levels observed in saline-treated rats
locomotor response to amphetamine ([6]; MAM-treated rats): reduced
cortical-evoked responses of HPC neurons ([6]; saline-treated and MAM-treated animals): diminished cortical-evoked responses

CCOC(=O)c1ncn2c1Cn1c(C)nnc1-c1cc(OC)ccc1-2 [ethyl 3-methoxy-7-methyl-9H-benzo[f]imidazo[1,5-a][1,2,4]tri]
effect on binding of Ro 15-4513 in hippocampus ([4]; 0.01-10 mg/kg, i.v.): reduced Ro 15-4513 binding in hippocampus
effect on binding/levels of Ro 15-4513 in cerebellum ([4]; 0.01-10 mg/kg, i.v.): without affecting cerebellum levels of Ro 15-4513
GABAA α5 receptor occupancy ([4]; 10 mg/kg, i.v.): > 90%
memory performance relative to vehicle control treatment ([5]; 3 mg/kg, four-hour delay RAM, t(7)=4.13, p=0.004, or t(7)=3.08, p=0.018): significantly improved memory performance
memory performance relative to vehicle control treatment ([5]; 10 mg/kg, four-hour delay RAM, t(7)=2.82, p=0.026): significantly improved memory performance
